Measured values as given in patent US8557559B2, “Self-dying recombinant microorganism for measuring soil and water contamination” (priority 2010, dated 2013).

Tests used:
Type in all cases: cell-based
[1] = system: recombinant strain, Sphingomonas paucimobilis (SEQ ID NO. 1); experiment: Verification of substrate specificity: fluorescence reaction of recombinant strain in inorganic medium (LIVE/DEAD BacLight staining, micro-plate reader); settings: inorganic medium with pyruvate; about 50 mg/L through about 500 mg/L; FIG. 2
Procedure: Phenanthrene was added to an inorganic medium including pyruvate as a carbon source, up to phenanthrene concentrations of about 50 mg/L through about 500 mg/L, the recombinant strain was inoculated, and a sample was taken every 24-hour and stained using LIVE/DEAD BacLight bacterial viability kit (Molecular Probes, L7012) and a fluorescence reaction was measured by a micro-plate reader.
A reaction of the recombinant strain with respect to an inorganic medium including hexane and hexadecane that are aliphatic hydrocarbon having the equivalent concentration, hexane concentrations being about 50 mg/L through about 500 mg/L and hexadecane concentrations being about 50 mg/L through about 500 mg/L, and a reaction of the recombinant strain with respect to an inorganic medium including toluene that is a monoaromatic hydrocarbon, toluene concentrations being about 1 mg/L through about 50 mg/L, were respectively measured for comparison.
The LIVE/DEAD BacLight bacterial viability kit is a dying scheme that labels, using a DNA-binding dye, DNA of a live microorganism with green fluorescence and labels, using […], DNA of dead microorganism with red fluorescence and thus, indicates a viability of microorganisms.
The reaction of the recombinant strain was expressed by a relative fluorescence intensity FL/FL0, that is, a value obtained by dividing a fluorescence reaction value FL of a recombinant strain exposed to a target contaminant by a fluorescence reaction value FL0 of a recombinant strain that is not exposed to the target contaminant. The relative fluorescence intensity FL/FL0 expresses the reaction of the recombinant strain, which is based on a concentration of contaminant, with a rate of decreasing fluorescence and thus, an error rate may be reduced during a test, and a concentration of toxicity may be expressed with a standardized fluorescence intensity value.

[2] = system: recombinant strain, Sphingomonas paucimobilis (SEQ ID NO. 1); experiment: Performance of recombinant strain in model soil (Ottawa sand), CLSM fluorescence quantified with ImageJ; settings: model soil contaminated 50 mg/kg to 1000 mg/kg; FIG. 3
Text: (§1) A confocal laser scanning microscope (CLSM) may measure a fluorescence reaction of the mixture of a soil sample and microorganisms to analyze phenanthrene in the soil sample. An image including measured green fluorescence and measured red fluorescence may be converted into a grayscale image after removing the measured red fluorescence from the image based on Adobe Photoshop CS4 (Adobe Systems, CA, USA). An integrated fluorescence intensity in an image of 254×254 pixels was quantified using a measure function of ImageJ program (ImageJ; Rasband, 1997-2009). The integrated fluorescence intensity may be a value obtained by dividing sum of illuminance of all the pixels by a number of the pixels in the image.
Ottawa sand was used as a model soil. The model soil was contaminated with phenanthrene up to concentrations from 50 mg/kg to 1000 mg/kg, an inorganic medium including pyruvate as a source of carbon was added, the inorganic medium of 10 mL per the model soil of 2 g, the recombinant strain was inoculated, and a sample was taken every 24-hour to measure a fluorescence response.
A fluorescence response was photographed by a CLSM to directly measure a mixture of the model soil, the liquid medium, and the recombinant strain, and the measured fluorescence reaction was quantified using an ImageJ program. […]

[3] = system: recombinant strain, Sphingomonas paucimobilis (SEQ ID NO. 1); experiment: Performance of recombinant strain in real soil (M soil), CLSM fluorescence; settings: 50 mg/kg to 1000 mg/kg, 24-hours, FIGS. 5 and 6
Text: as §1
Phenanthrene was added to soil that had not been contaminated with phenanthrene up to concentrations from 50 mg/kg to 1000 mg/kg, an inorganic medium was added, the inorganic medium of 10 mL per soil of 2 g, the recombinant strain was inoculated and cultivated for 24-hours, and a reaction was measured in the same manner as Example 3.

| Compound | response of the recombinant strain (relative fluorescence intensity FL/FL0) [1] | response of the recombinant strain to phenanthrene in Ottawa sand [2] | reaction of the recombinant strain to phenanthrene in real soil [3] |
| --- | --- | --- | --- |
| CCCCCC [hexane] | may not respond |  |  |
| CCCCCCCCCCCCCCCC [hexadecane] | may not respond |  |  |
| c1ccc2c(c1)ccc1ccccc12 [phenanthrene] | death response | as phenanthrene concentrations increase, a number of live microorganisms decrease | significantly sensitive to phenanthrene concentrations |
